Measured values as given in patent US6750240B2, “Methods of using bis-indolylquinones” (Sugen, Inc., priority 1997, dated 2004).

Columns and labels:
[1] = system: human epidermoid carcinoma (A431, ATCC CRL 1555); test: In vivo tumor growth of A431 cells implanted into the hindflank of athymic mice; parameters: species or system Female athymic mice (BALB/c, nu/nu)
Experimental: The following example illustrates the use of the compounds of the invention in an in vivo model of tumor growth.
Female athymic mice (BALB/c, nu/nu) were obtained from Simonsen Laboratories (Gilroy, Calif.). All animals were maintained under clean-room conditions in Micro-isolator cages with Alpha-dri bedding. They received sterile rodent chow and water ad libitum. A cell line established from a human epidermoid carcinoma (A431, ATCC CRL 1555) was grown in DMEM with 10% FBS and 2 mM GLN. All cell culture media, glutamine, and fetal bovine serum were purchased from Gibco Life Technologies (Grand Island, N.Y.) unless otherwise specified. All cells were grown in a humid atmosphere of 90-95% air and 5-10% CO2 at 37° C. All cell lines were routinely subcultured twice a week and were negative for mycoplasma as determined by teh Mycotect method (Gibco). Cells were harvested at or near confluency with 0.05% Trypsin-EDTA and pelleted at 450×g for 10 min. Pellets were resuspended in sterile PBS or media (without FBS) to a particular concentration and the cells were implanted into the hindflank of the mice ([…] mice per group). Tumor growth was measured, over 3 to 6 weeks using venier calipers. Tumor volumes were calculated as a product of length×width×height unless otherwise indicated. P values were calculated using the Students' t-test. Compound 1 (from Example 1 and Table I) in 100 μL excipient (VPD:D5W, 1:1 (VPD−12% w/v polysorbate 80, 0.55% citric acid (anhydrous), 35% w/v polyenthlene glycol (MW=300 daltons) and 26.3% v/v 190 proof ethanol diluted 1:22 in 5% dextrose in water (D5W) was delivered by IP injection at different concentrations. Control animals received VPD:D5W alone. Animals were dosed daily on days 1-5 (high dose), days 1-9 (mid-dose) or throughout the study (low dose).
The results are shown below as a percent tumor reduction compared to controls.

[2] = biological target: HIV-reverse transcriptase (Human immunodeficiency virus type 1 group M subtype B, UniProt P03366); conditions: cited from earlier work

| Structure (SMILES) | % inhibition (percent tumor reduction compared to controls) ([1]; 2.5 mg/kg/day IP (low dose, dosed daily throughout the study), Day 7, A431 tumor) [%] | % inhibition (percent tumor reduction compared to controls) ([1]; 2.5 mg/kg/day IP (low dose, dosed daily throughout the study), Day 18, A431 tumor) [%] | % inhibition (percent tumor reduction compared to controls) ([1]; 5 mg/kg/day IP (mid-dose, days 1-9), Day 7, A431 tumor) [%] | % inhibition (percent tumor reduction compared to controls) ([1]; 5 mg/kg/day IP (mid-dose, days 1-9), Day 18, A431 tumor) [%] | % inhibition (percent tumor reduction compared to controls) ([1]; 7.5 mg/kg/day IP (high dose, days 1-5), Day 7, A431 tumor) [%] | % inhibition (percent tumor reduction compared to controls) ([1]; 7.5 mg/kg/day IP (high dose, days 1-5), Day 18, A431 tumor) [%] | tumor growth inhibition, dose dependence ([1]; IP, 2.5-7.5 mg/kg/day, A431 tumor in athymic mice) | tumor growth after cessation of treatment ([1]; after cessation of treatment with the compound) | inhibition of HIV-reverse transcriptase [2] |
| --- | --- | --- | --- | --- | --- | --- | --- | --- | --- |
| CC(C)CCc1[nH]c2ccccc2c1C1=C(O)C(=O)C(c2c(CCC(C)C)[nH]c3ccccc23)=C(O)C1=O [Compound 1, 2,5-Dihydroxy-3,6-di-[2-(3-methyl-n-butyl)indol-3-yl]-1,4-quinone] | 11 | 0 | 30 | 38 | 55 | 50 | inhibited tumor growth in a dose dependent manner | remained inhibited even after cessation of treatment |  |
| C=CC(C)(C)n1cc(C2=C(O)C(=O)C(c3cn(C(C)(C)C=C)c4ccccc34)=C(O)C2=O)c2ccccc21 [asterriquinone, 2,5-bis[N-(1″,1″-dimethyl-2″-propenyl)indol-3″-yl]-3,6-dihydroxy-1,4-benzoquinone] |  |  |  |  |  |  |  |  | strong inhibitors |
